{"source": "patent US20240390434A1", "about": "“PROBIOTIC ENHANCERS AND USES THEREOF” (Blis Technologies Limited, priority 2021, published 2024)", "format_in_all_cases": "cell-based", "key": {"ENTR indicator strains": {"tested_on": "ENTR indicator strains", "experiment": "Dose response deferred antagonism assay, producer K12: average over indicators", "details": "2% galactose", "method": "1-2 producer strain colonies were transferred from a stock plate into 900 μL of suspension solution using a fresh cotton swab. Following this, suspensions were vortexed, and a sample was inoculated onto solid culture media using a fresh cotton swab. The inoculation was a streak that runs diametrically across the agar plate in a 1.5 cm wide strip. The plate was then incubated. Following incubation all visible colonies were removed by swabbing them from the agar surface. The plates were then treated with chloroform by dispensing 2 ml of chloroform onto 4 cm×4 cm piece of cloth and sealing the inverted agar plate on top for 30 minutes. The plates were then air dried for 30 minutes following chloroforming. 1-2 indicator strain colonies were then transferred from a stock plate into complementary suspension solution. […]\nEach indicator streak was prepared with fresh a suspension containing cells from a corresponding stock plate containing the indicator strain of interest. […] Results were measured by qualitatively reviewing the subsequent (if any) sizes of the zones of inhibition (ZOI) of indicator strain colony growth. […]\nCABCa agar plates containing various concentrations of saccharide were prepared according to the methods described in Method 1. […] Results were recorded by measuring the size of the zone of inhibition (ZOI) in mm. […]"}, "S. pneumoniae D39": {"tested_on": "S. pneumoniae D39", "experiment": "Deferred antagonism assay, producer S. salivarius M18", "details": "Streptococcus pneumoniae, D39, M18, read-out: Size of zone inhibition normalised to control, S. pneumoniae D39", "method": "(§1) 1-2 producer strain colonies were transferred from a stock plate into 900 μL of suspension solution using a fresh cotton swab. Following this, suspensions were vortexed, and a sample was inoculated onto solid culture media using a fresh cotton swab. The inoculation was a streak that runs diametrically across the agar plate in a 1.5 cm wide strip. The plate was then incubated. Following incubation all visible colonies were removed by swabbing them from the agar surface. The plates were then treated with chloroform by dispensing 2 ml of chloroform onto 4 cm×4 cm piece of cloth and sealing the inverted agar plate on top for 30 minutes. The plates were then air dried for 30 minutes following chloroforming. 1-2 indicator strain colonies were then transferred from a stock plate into complementary suspension solution. The suspensions were then vortexed, and a sample was inoculated onto the same agar surface. These samples were streaked in a perpendicular direction to the initial producer streak.\n(§2) Each indicator streak was prepared with fresh a suspension containing cells from a corresponding stock plate containing the indicator strain of interest. Indicator strains suspension samples were transferred using a fresh cotton swab. Results were measured by qualitatively reviewing the subsequent (if any) sizes of the zones of inhibition (ZOI) of indicator strain colony growth. A positive result is when there is a distinctive reduction or complete inhibition of indicator colony growth on the culture medium.\n(§3) CABCa agar plates containing various concentrations of saccharide were prepared according to the methods described in Method 1. Producer strains were transferred from stock agar plates into 900 μL THB using a fresh cotton swab. A plastic spread plater was cut to approximately 1.2 cm width and then dipped into ethanol and left to air dry to ensure sterility. A 100 μL sample of the producer strain suspension was then dispensed onto the agar surface in a straight line running diametrically across the agar surface in (approximately) 20 μL spots. The spots were spaced approximately 1.5 cm apart from each other. The plastic spreader was then used to evenly distribute the spots across the agar surface in a 1.5 cm wide strip. This step was taken to ensure an even producer streak was inoculated onto the agar surface and provided an approximate measure of the initial inoculum concentration. Separate plastic spreaders were used for samples containing different producer strains. The samples were left to soak into the agar surface until there was no visible liquid remaining on the agar surface (approximately 20 minutes). Following producer streak preparations, the deferred antagonism assay protocol was followed as per Method 2. Results were recorded by measuring the size of the zone of inhibition (ZOI) in mm.\n(§4) A dose response assay was carried out according to method 3 above, except a 1.2 cm streak was used. For the individual saccharide testing the pH of the producer streak was adjusted after the growth of producer to change the acidic conditions.\n(§5) A deferred antagonism assay was conducted using K12 or M18 raw ingredient suspended in Todd Hewitt broth (THB). This was spread as a 1.2 cm streak containing approximately 1-2×10^6 cfu down the middle of a CABCa control or CABCa galactose supplemented test plate. After 18 hrs growth at 37° C. with 5% CO2, bacterial growth was removed, and the pH of the agar in the initial streak was measured and adjusted to a pH of 6.5-7.5 using 0.5M sodium carbonate pH11 before sterilizing the agar surface using chloroform vapor. Bacterial test strains were suspended in i-THB before being swabbed across the plates perpendicular to the initial streak. Plates were incubated for a further 18 hrs incubation at 37° C. with 5% CO2 before measuring (mm) any zones of inhibition for each test strain, […]"}, "S. aureus A222": {"tested_on": "S. aureus A222", "experiment": "Deferred antagonism assay, producer S. salivarius M18", "details": "Staphylococcus aureus, A222, M18, read-out: Size of zone inhibition normalised to control, S. aureus A222", "method": "as §1, §2, §3, §4, §5"}, "S. mutans OMZ175": {"tested_on": "S. mutans OMZ175", "experiment": "Deferred antagonism assay, producer S. salivarius M18", "details": "Streptococcus mutans, OMZ175, M18, read-out: Size of zone inhibition normalised to control, S. mutans OMZ175", "method": "as §1, §2, §3, §4, §5"}, "S. constellatus T29": {"tested_on": "S. constellatus T29", "experiment": "Deferred antagonism assay, producer S. salivarius M18", "details": "Streptococcus constellatus, T29, M18, read-out: Size of zone inhibition normalised to control, S. constellatus T29", "method": "as §1, §2, §3, §4, §5"}, "[1]": {"tested_on": "S. saprophyticus ATCC 15305", "experiment": "Deferred antagonism assay, producer S. salivarius M18", "details": "Staphylococcus saprophyticus, ATCC15305, M18, read-out: Size of zone inhibition normalised to control, S. saprophyticus ATCC 15305", "method": "as §1, §2, §3, §4, §5"}}}
{"smiles": "O=C[C@H](O)[C@@H](O)[C@@H](O)[C@H](O)CO", "note": "[Galactose, D-galactose]", "values": [{"measurement": "Average ZOI change", "setting": "ENTR indicator strains", "value": 9.5, "unit": "mm"}, {"measurement": "zone of inhibition at 0.5 % strength", "setting": "S. pneumoniae D39; Galactose 0.5% w/w", "value": 8, "unit": "mm"}, {"measurement": "zone of inhibition at 1.25 % strength", "setting": "S. pneumoniae D39; Galactose 1.25% w/w", "value": 5, "unit": "mm"}, {"measurement": "zone of inhibition at 1.7 % strength", "setting": "S. pneumoniae D39; Galactose 1.7% w/w", "value": 0, "unit": "mm"}, {"measurement": "zone of inhibition at 2.5 % strength", "setting": "S. pneumoniae D39; Galactose 2.5% w/w", "value": 6, "unit": "mm"}, {"measurement": "zone of inhibition at 3.3 % strength", "setting": "S. pneumoniae D39; Galactose 3.3% w/w", "value": 2, "unit": "mm"}, {"measurement": "zone of inhibition at 5 % strength", "setting": "S. pneumoniae D39; Galactose 5% w/w", "value": 0, "unit": "mm"}, {"measurement": "zone of inhibition at 0.5 % strength", "setting": "S. aureus A222; Galactose 0.5% w/w", "value": 10, "unit": "mm"}, {"measurement": "zone of inhibition at 1.25 % strength", "setting": "S. aureus A222; Galactose 1.25% w/w", "value": 6, "unit": "mm"}, {"measurement": "zone of inhibition at 1.7 % strength", "setting": "S. aureus A222; Galactose 1.7% w/w", "value": 0, "unit": "mm"}, {"measurement": "zone of inhibition at 2.5 % strength", "setting": "S. aureus A222; Galactose 2.5% w/w", "value": 0, "unit": "mm"}, {"measurement": "zone of inhibition at 3.3 % strength", "setting": "S. aureus A222; Galactose 3.3% w/w", "value": 6, "unit": "mm"}, {"measurement": "zone of inhibition at 5 % strength", "setting": "S. aureus A222; Galactose 5% w/w", "value": 0, "unit": "mm"}, {"measurement": "zone of inhibition at 0.5 % strength", "setting": "S. mutans OMZ175; Galactose 0.5% w/w", "value": 16, "unit": "mm"}, {"measurement": "zone of inhibition at 1.25 % strength", "setting": "S. mutans OMZ175; Galactose 1.25% w/w", "value": 0, "unit": "mm"}, {"measurement": "zone of inhibition at 1.7 % strength", "setting": "S. mutans OMZ175; Galactose 1.7% w/w", "value": 0, "unit": "mm"}, {"measurement": "zone of inhibition at 2.5 % strength", "setting": "S. mutans OMZ175; Galactose 2.5% w/w", "value": 0, "unit": "mm"}, {"measurement": "zone of inhibition at 3.3 % strength", "setting": "S. mutans OMZ175; Galactose 3.3% w/w", "value": 6, "unit": "mm"}, {"measurement": "zone of inhibition at 5 % strength", "setting": "S. mutans OMZ175; Galactose 5% w/w", "value": 0, "unit": "mm"}, {"measurement": "zone of inhibition at 0.5 % strength", "setting": "S. constellatus T29; Galactose 0.5% w/w", "value": 0, "unit": "mm"}, {"measurement": "zone of inhibition at 1.25 % strength", "setting": "S. constellatus T29; Galactose 1.25% w/w", "value": 8, "unit": "mm"}, {"measurement": "zone of inhibition at 1.7 % strength", "setting": "S. constellatus T29; Galactose 1.7% w/w", "value": 0, "unit": "mm"}, {"measurement": "zone of inhibition at 2.5 % strength", "setting": "S. constellatus T29; Galactose 2.5% w/w", "value": 16, "unit": "mm"}, {"measurement": "zone of inhibition at 3.3 % strength", "setting": "S. constellatus T29; Galactose 3.3% w/w", "value": 22, "unit": "mm"}, {"measurement": "zone of inhibition at 5 % strength", "setting": "S. constellatus T29; Galactose 5% w/w", "value": 17, "unit": "mm"}, {"measurement": "zone of inhibition at 0.5 % strength", "setting": "[1]; Galactose 0.5% w/w", "value": 5, "unit": "mm"}, {"measurement": "zone of inhibition at 1.25 % strength", "setting": "[1]; Galactose 1.25% w/w", "value": 0, "unit": "mm"}, {"measurement": "zone of inhibition at 1.7 % strength", "setting": "[1]; Galactose 1.7% w/w", "value": 0, "unit": "mm"}, {"measurement": "zone of inhibition at 2.5 % strength", "setting": "[1]; Galactose 2.5% w/w", "value": 0, "unit": "mm"}, {"measurement": "zone of inhibition at 3.3 % strength", "setting": "[1]; Galactose 3.3% w/w", "value": 0, "unit": "mm"}, {"measurement": "zone of inhibition at 5 % strength", "setting": "[1]; Galactose 5% w/w", "value": 0, "unit": "mm"}]}
